{
  "source": "patent US20040127439A1",
  "about": "“Introduction of the wld gene for prevention of axonal degeneration in neurological diseases” (priority 2004, published 2004)",
  "key": {"DRG neurites": {"tested_on": "DRG neurites", "details": "for reduction in DRG area versus day 0: vincristine 0.01 μM; for Area (DRG neuritic halo) / Length (longest neurite): Vin 0.01 μM, AK295 50 μM, EGTA 2 mM, sulfate salt", "procedure": "On the day of DRG culture, the dishes are washed twice with PBS buffer (pH 7.4), filled with 550 μl medium and pre-incubated at 37 C for at least 2 hours. Fifteen-day old embryos (E15) are removed from pregnant Sprague-Dawley rats (Charles River), and spinal cords with cervical and thoracic DRGs attached are dissected into Leibovitz L-15 medium (GIBCO). Ganglia are separated from the spinal cord, stripped of their connective tissue sheaths and roots, and are then pooled and washed twice with PBS buffer (pH 7.4). DRGs are plated (4 per dish) in culture media and incubated at 37° C. in 5% carbon dioxide for 4 hours to allow DRGs to attach to the substrate. Medium is then added to bring the total volume to 1 ml. […] Calcium-free medium is prepared in the same manner, replacing MEM with S-MEM (GIBCO).\nAt the end of the treatment period (see below) DRGs are fixed for 30 minutes with 4% paraformaldehyde. Cultures are then rinsed with 0.1M TBS buffer, and treated sequentially with 3% H2O2, TBS-Triton, and 4% normal goat serum (NGS), each for 30 minutes at room temperature. DRGs are incubated at 4 C overnight in monoclonal antibody to MAP5 (1:500, Sigma). After washing in TBS-Triton, DRGs are incubated for 60 minutes in biotinylated secondary antibody, rinsed with TBS and reacted with avidin-biotin complex solution (ABC; Vector Labs) for one hour. Color is generated by incubation for 10 minutes in diaminobenzidine (DAB) solution, enhanced by addition of 0.025% cobalt chloride and 0.02% nickel ammonium sulfate. Stained tissue is rinsed, air dried and cover-slipped for microscopy with Crystal/Mount (Biomeda).\nThis method of allowing neuritic extension to proceed before addition of a neurotoxin tests the effect of the toxin on established neurites as opposed to the effect on primary neuritic outgrowth.\nAfter day 5 of culture, the media is changed to that containing the experimental treatment. This date is defined as treatment day 0. Cultures are monitored and imaged daily using video microscopy. […] AK 295 (Z-leu-Abu-(CH2)3-4-morpholinyl, gift of Dr. James Powers, Georgia Institute of Technology), is dissolved in 100% DMSO and is then diluted to its final concentration with culture medium. The final concentration of DMSO is 0.05%. Phenylmethylsulfonyl fluoride (PMSF) is manufactured by and commercially available from Sigma.\nAfter 6 days of treatment (11 days in culture) immunostained DRGs are quantitated for degree of axonal degeneration. Images of the DRGs and neurites are captured onto disk using a computerized video imaging system, and are analyzed using NIH Image version 1.61. DRG areas are calculated by tracing the outside circumference of the remaining culture halo. The length of the longest neurite of each DRG is measured from the center of the DRG to the distal end of the neurite, so that cultures without remaining neurites still have positive values. These quantitative data are subjected to ANOVA, with post-test correction for multiple comparisons."}, "Wld^S DRG axons": {"tested_on": "Wld^S DRG axons", "experiment": "Vincristine withdrawal in Wld^S mouse DRG cultures", "type": "cell-based", "details": "0.05 μM vincristine for 24 hours", "procedure": "The methods for DRG culture have been previously described.\nCultures were measured for length of longest axon and area of the DRG halo at days 4, 8, 12, 16 and 20. Lengths were measured from the center of the DRG to the visible distal end of the axon, and areas were calculated by tracing the circumference crested by connecting the tips of the remaining axons. […] Comparisons were made between quantitative data for C57BL/6 and Wld^S axons. For assessment of growth, day 4 observations in Wld^S were compared to all succeeding days using ANOVA for repeated measures."}, "[1]": {"details": "Day 3 of treatment, listed as Vin"}, "[2]": {"details": "Day 4 of treatment, listed as Vin"}, "[3]": {"details": "Day 6 of treatment, PMSF 50 μM, listed as Vin"}},
  "note": "Like-named read-outs stand apart in the source and are kept apart here.",
  "data": [
    {"substance": "Vincristine sulfate salt", "values": [
      {"measurement": "process of axonal degeneration (in words)", "setting": "DRG neurites; 0.01 μM", "value": "relatively slow"},
      {"measurement": "reduction in DRG area versus day 0", "setting": "DRG neurites; 4 days exposure", "value": 91.5, "unit": "%"},
      {"measurement": "reduction in DRG area versus day 0", "setting": "DRG neurites; 6 days exposure", "value": 97.9, "unit": "%"},
      {"measurement": "Area (DRG neuritic halo)", "setting": "DRG neurites; [1]", "value": "6.78 ± 1.06 (17) mm^2"},
      {"measurement": "Length (longest neurite)", "setting": "DRG neurites; [1]", "value": "1.62 ± 0.19", "unit": "mm"},
      {"measurement": "Area (DRG neuritic halo)", "setting": "DRG neurites; Day 3 of treatment", "value": "6.78±1.06", "unit": "mm^2"},
      {"measurement": "Length (longest neurite)", "setting": "DRG neurites; Day 3 of treatment", "value": "1.62±0.19", "unit": "mm"},
      {"measurement": "Area (DRG neuritic halo)", "setting": "DRG neurites; [2]", "value": "2.45 ± 0.74 (13) mm^2"},
      {"measurement": "Length (longest neurite)", "setting": "DRG neurites; [2]", "value": "0.91 ± 0.19", "unit": "mm"},
      {"measurement": "Area (DRG neuritic halo)", "setting": "DRG neurites; Day 4 of treatment", "value": "2.45±0.74", "unit": "mm^2"},
      {"measurement": "Length (longest neurite)", "setting": "DRG neurites; Day 4 of treatment", "value": "0.91±0.19", "unit": "mm"},
      {"measurement": "Area (DRG neuritic halo)", "setting": "DRG neurites; [3]", "value": "0.61 ± 0.21 (48) mm^2"},
      {"measurement": "Length (longest neurite)", "setting": "DRG neurites; [3]", "value": "0.37 ± 0.06", "unit": "mm"},
      {"measurement": "Area (DRG neuritic halo)", "setting": "DRG neurites; Day 6 of treatment, PMSF 50 μM", "value": "0.16±0.61", "unit": "mm^2"},
      {"measurement": "Length (longest neurite)", "setting": "DRG neurites; Day 6 of treatment, PMSF 50 μM", "value": "0.37±0.06", "unit": "mm"},
      {"measurement": "time within which axonal degeneration occurs", "setting": "DRG neurites; concentrations 0.05 μM, 5 day-old cultures", "value": "1 to 3", "unit": "days"},
      {"measurement": "reduction in length of the longest axons versus day 0", "setting": "DRG neurites; day 3, vincristine 0.01 μM", "value": 57.6, "unit": "%"},
      {"measurement": "reduction in length of the longest axons versus day 0", "setting": "DRG neurites; day 4, vincristine 0.01 μM", "value": 76.2, "unit": "%"},
      {"measurement": "reduction in length of the longest axons versus day 0", "setting": "DRG neurites; day 6, vincristine 0.01 μM", "value": 90.3, "unit": "%"},
      {"measurement": "reduction in DRG area versus day 0", "setting": "DRG neurites; three days exposure", "value": 76.6, "unit": "%"},
      {"measurement": "time until fibers are completely replaced by axonal debris", "setting": "DRG neurites; vincristine exposure (FIG. 1: 0.01 μM)", "value": "5 to 6", "unit": "days"},
      {"measurement": "duration of growth arrest", "setting": "Wld^S DRG axons", "value": 10, "unit": "days"},
      {"measurement": "area after resumed growth, % of control values", "setting": "Wld^S DRG axons; 20-day observation period", "value": 150, "unit": "%"},
      {"measurement": "length after resumed growth, % of control values", "setting": "Wld^S DRG axons; 20-day observation period", "value": 125, "unit": "%"}
    ]}
  ]
}
